What was measured:
[1] = target: T1, murine sEH (Mus musculus, UniProt P34914); experiment: Fluorescence binding assay of reporter ACPU on murine sEH
T1 sequence (P34914 1-554): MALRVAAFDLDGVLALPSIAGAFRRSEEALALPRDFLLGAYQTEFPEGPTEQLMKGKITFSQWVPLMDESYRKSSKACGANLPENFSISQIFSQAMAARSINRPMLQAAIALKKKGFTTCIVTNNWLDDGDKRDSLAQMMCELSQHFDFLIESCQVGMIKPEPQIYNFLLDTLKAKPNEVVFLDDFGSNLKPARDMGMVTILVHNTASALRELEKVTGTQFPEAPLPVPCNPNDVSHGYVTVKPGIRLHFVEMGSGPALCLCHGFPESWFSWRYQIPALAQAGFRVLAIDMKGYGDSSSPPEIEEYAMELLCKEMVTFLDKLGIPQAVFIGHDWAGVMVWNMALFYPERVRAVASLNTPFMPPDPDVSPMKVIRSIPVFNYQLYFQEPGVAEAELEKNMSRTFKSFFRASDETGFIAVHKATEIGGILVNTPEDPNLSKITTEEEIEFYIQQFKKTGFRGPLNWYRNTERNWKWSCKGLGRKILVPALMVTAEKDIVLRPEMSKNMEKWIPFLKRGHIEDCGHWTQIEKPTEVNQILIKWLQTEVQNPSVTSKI

[2] = target: T2, rat sEH (Rattus norvegicus, UniProt P80299); experiment: Fluorescence binding assay of reporter ACPU on rat sEH
T2 sequence (P80299 1-554): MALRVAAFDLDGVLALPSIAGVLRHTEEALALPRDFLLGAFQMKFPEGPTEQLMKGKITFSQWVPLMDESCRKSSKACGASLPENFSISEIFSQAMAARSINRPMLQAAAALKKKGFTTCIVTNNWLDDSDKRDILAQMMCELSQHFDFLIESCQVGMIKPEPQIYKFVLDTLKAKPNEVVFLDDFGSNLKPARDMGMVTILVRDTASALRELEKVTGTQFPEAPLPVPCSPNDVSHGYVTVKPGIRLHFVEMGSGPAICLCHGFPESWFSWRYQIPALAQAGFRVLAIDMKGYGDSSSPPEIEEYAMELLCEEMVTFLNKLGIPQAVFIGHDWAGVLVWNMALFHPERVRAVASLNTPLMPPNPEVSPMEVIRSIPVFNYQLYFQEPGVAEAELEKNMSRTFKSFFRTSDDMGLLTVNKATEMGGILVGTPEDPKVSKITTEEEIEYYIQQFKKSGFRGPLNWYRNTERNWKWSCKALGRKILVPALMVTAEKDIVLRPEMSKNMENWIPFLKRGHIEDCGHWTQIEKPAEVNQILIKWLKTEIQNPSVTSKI

[3] = target: T3, hsEH (Homo sapiens, UniProt P34913); experiment: Fluorescence binding assay
T3 sequence (P34913 1-555): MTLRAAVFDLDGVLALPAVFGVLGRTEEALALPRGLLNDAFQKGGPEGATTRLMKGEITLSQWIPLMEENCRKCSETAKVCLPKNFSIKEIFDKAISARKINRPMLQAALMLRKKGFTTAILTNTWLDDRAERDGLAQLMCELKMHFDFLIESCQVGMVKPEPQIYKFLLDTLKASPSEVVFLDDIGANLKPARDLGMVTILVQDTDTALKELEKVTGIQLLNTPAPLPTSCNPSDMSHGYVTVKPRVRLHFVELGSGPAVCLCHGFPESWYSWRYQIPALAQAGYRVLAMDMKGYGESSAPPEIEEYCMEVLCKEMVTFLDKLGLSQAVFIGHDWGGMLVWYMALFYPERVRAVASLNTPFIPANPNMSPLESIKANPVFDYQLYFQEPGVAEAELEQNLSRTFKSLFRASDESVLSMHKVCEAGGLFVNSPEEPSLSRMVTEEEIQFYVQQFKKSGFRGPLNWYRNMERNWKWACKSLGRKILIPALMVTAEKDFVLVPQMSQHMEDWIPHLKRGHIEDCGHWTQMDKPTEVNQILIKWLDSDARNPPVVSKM

## O=C(NC1CCN(C(=O)Cc2cc(=O)oc3cc(O)ccc23)CC1)NC12CC3CC(CC(C3)C1)C2 [ACPU, 1-(adamantan-1-yl)-3-(1-(2-(7-hydroxy-2-oxo-2H-chromen-4-yl)acetyl)piperidin-4-yl)urea]
[1]
  Kd: 0.1 nM
[2]
  Kd: 0.17 nM
[3]
  Kd: 1.04 ± 0.04 nM
[3]; FRET signal at 450 nm
  time needed to reach the equilibrium between ACPU and sEH: 40 min

Source: paper PMC3632402 (Analytical biochemistry, 2012)
